According to ChEMBL document CHEMBL3585336, “Synthesis and evaluation of quinazoline amino acid derivatives as mono amine oxidase (MAO) inhibitors” (Bioorg Med Chem, 2015):
pIC50: −log10 of the molar value.

Tests used:
[1] = tested on: Mus musculus; experiment: Acute toxicity in mouse at 125 mg/kg, ip after 24 hrs; assay type: organism-based; conditions: in vivo
[2] = molecular target: T1, Amine oxidase [flavin-containing] A (Bos taurus, UniProt P21398); experiment: Inhibition of bovine brain mitochondria MAO-A using serotonin substrate after 60 mins by fluorimetric method
T1 sequence (P21398 whole entry): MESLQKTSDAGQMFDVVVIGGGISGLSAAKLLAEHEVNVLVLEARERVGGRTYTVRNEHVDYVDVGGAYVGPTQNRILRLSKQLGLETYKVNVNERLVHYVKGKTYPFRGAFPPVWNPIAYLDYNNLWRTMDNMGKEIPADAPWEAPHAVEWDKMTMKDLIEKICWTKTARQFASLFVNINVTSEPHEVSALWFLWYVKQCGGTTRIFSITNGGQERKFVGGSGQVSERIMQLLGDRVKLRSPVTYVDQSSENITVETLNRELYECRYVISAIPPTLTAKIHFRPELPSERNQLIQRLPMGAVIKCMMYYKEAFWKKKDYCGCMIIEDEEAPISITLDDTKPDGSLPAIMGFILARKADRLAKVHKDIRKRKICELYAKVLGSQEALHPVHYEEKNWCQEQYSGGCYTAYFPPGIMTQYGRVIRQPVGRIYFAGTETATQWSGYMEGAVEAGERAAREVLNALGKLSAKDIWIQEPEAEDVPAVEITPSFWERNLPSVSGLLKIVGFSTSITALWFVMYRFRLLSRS

[3] = molecular target: T2, Amine oxidase [flavin-containing] B (Bos taurus, UniProt P56560); experiment: Inhibition of bovine brain mitochondria MAO-B using benzylamine substrate after 60 mins by fluorimetric method
T2 sequence (P56560 whole entry): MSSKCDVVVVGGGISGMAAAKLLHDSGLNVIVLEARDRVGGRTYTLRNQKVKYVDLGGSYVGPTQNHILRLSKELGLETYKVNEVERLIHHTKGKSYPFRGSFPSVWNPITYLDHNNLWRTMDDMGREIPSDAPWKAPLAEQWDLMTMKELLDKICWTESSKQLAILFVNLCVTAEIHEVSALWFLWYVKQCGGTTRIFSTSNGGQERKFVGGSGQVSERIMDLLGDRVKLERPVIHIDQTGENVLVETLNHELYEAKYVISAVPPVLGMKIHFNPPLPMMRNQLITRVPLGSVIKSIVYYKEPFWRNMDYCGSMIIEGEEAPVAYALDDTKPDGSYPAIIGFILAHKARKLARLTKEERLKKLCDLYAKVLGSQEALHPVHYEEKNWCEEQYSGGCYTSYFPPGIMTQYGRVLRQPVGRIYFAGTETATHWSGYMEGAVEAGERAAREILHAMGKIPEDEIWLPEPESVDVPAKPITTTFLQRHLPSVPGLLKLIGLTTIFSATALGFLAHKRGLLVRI

[4] = tested on: Mus musculus; experiment: Acute toxicity in mouse at 300 mg/kg, po after 24 hrs; assay type: organism-based; conditions: in vivo

SMILES	Activity [1]	pIC50 [2]	pIC50 [3]	Activity [4]
COC(=O)CCCN1C(=O)c2ccccc2NC1c1ccco1 (stereo unspecified)	Non-toxic	7.02	3.11	Non-toxic
NNC(=O)CCN1C(=O)c2ccccc2NC1c1ccccc1 (stereo unspecified)	Non-toxic	7.80	3.68	Non-toxic
NNC(=O)CCN1C(=O)c2ccccc2NC1c1ccc2c(c1)OCO2 (stereo unspecified)	Non-toxic	7.49	3.42	Non-toxic
NNC(=O)C(Cc1ccccc1)N1C(=O)c2ccccc2NC1c1ccco1 (stereo unspecified)	Non-toxic	7.55	3.66	Non-toxic
COC(=O)CN1C(=O)c2ccccc2NC1c1ccco1 (stereo unspecified)	Non-toxic	7.36	3.42	Non-toxic
COC(=O)CCN1C(=O)c2ccccc2NC1c1ccc(Cl)cc1 (stereo unspecified)	Non-toxic	7.01	3.14	Non-toxic
NNC(=O)CCCN1C(=O)c2ccccc2NC1c1ccco1 (stereo unspecified)	Non-toxic	7.44	3.57	Non-toxic
COc1ccc(C2Nc3ccccc3C(=O)N2CC(=O)NN)cc1 (stereo unspecified)	Non-toxic	7.09	3.05	Non-toxic
COC(=O)CCN1C(=O)c2ccccc2NC1c1ccccc1 (stereo unspecified)	Non-toxic	7.04	3.07	Non-toxic
NNC(=O)CN1C(=O)c2ccccc2NC1c1ccccc1 (stereo unspecified)	Non-toxic	7.42	3.51	Non-toxic
COC(=O)CCCN1C(=O)c2ccccc2NC1c1ccc2c(c1)OCO2 (stereo unspecified)	Non-toxic	7.06	3.18	Non-toxic
COC(=O)CN1C(=O)c2ccccc2NC1c1ccccc1 (stereo unspecified)	Non-toxic			Non-toxic
COC(=O)CN1C(=O)c2ccccc2NC1c1ccc(Cl)cc1 (stereo unspecified)	Non-toxic	8.44	4.06	Non-toxic
COC(=O)CCN1C(=O)c2ccccc2NC1c1ccc2c(c1)OCO2 (stereo unspecified)	Non-toxic	7.08	3.77	Non-toxic
NNC(=O)CCCN1C(=O)c2ccccc2NC1c1ccc2c(c1)OCO2 (stereo unspecified)	Non-toxic	7.09	3.38	Non-toxic
COC(=O)CCCCCNC(=O)c1ccccc1N	Non-toxic	7.25	3.36	Non-toxic
COC(=O)CN1C(=O)c2ccccc2NC1c1ccc2c(c1)OCO2 (stereo unspecified)	Non-toxic	7.21	3.13	Non-toxic
COC(=O)CN1C(=O)c2ccccc2NC1c1ccc(OC)cc1 (stereo unspecified)	Non-toxic	7.32	3.25	Non-toxic
C#CCN(C)CCCOc1ccc(Cl)cc1Cl [CLORGILINE]	Non-toxic			Non-toxic
COC(=O)[C@H](C)NC(=O)c1ccccc1N	Non-toxic	7.20	3.39	Non-toxic

SMILES	Activity [1]	pIC50 [2]	pIC50 [3]	Activity [4]
NNC(=O)CN1C(=O)c2ccccc2NC1c1ccco1 (stereo unspecified)	Non-toxic	7.44	3.25	Non-toxic
NNC(=O)CN1C(=O)c2ccccc2NC1c1ccc2c(c1)OCO2 (stereo unspecified)	Non-toxic	8.68	4.08	Non-toxic
COC(=O)CCCNC(=O)c1ccccc1N	Non-toxic	7.15	3.34	Non-toxic
NNC(=O)CN1C(=O)c2ccccc2NC1c1ccc(Cl)cc1 (stereo unspecified)	Non-toxic	7.32	3.03	Non-toxic
COC(=O)CCNC(=O)c1ccccc1N	Non-toxic	7.21	3.25	Non-toxic
COC(=O)CCCCCNC(=O)c1ccccc1/N=C/c1ccccc1	Non-toxic	7.19	3.27	Non-toxic
COC(=O)C(Cc1ccccc1)N1C(=O)c2ccccc2NC1c1ccco1 (stereo unspecified)	Non-toxic	7.14	3.47	Non-toxic
COC(=O)CCCCCN1C(=O)c2ccccc2NC1c1ccc2c(c1)OCO2 (stereo unspecified)	Non-toxic	7.08	3.09	Non-toxic
COC(=O)CCCCCN1C(=O)c2ccccc2NC1c1ccc(Cl)cc1 (stereo unspecified)	Non-toxic	7.36	3.54	Non-toxic
COC(=O)C(Cc1ccccc1)N1C(=O)c2ccccc2NC1c1ccc(Cl)cc1 (stereo unspecified)	Non-toxic	7.38	3.27	Non-toxic
COC(=O)C(C)N1C(=O)c2ccccc2NC1c1ccccc1 (stereo unspecified)	Non-toxic	7.41	3.34	Non-toxic
COC(=O)CCCN1C(=O)c2ccccc2NC1c1ccccc1 (stereo unspecified)	Non-toxic	7.20	3.27	Non-toxic
COC(=O)[C@H](Cc1ccccc1)NC(=O)c1ccccc1N	Non-toxic	7.42	3.17	Non-toxic
NNC(=O)CCCN1C(=O)c2ccccc2NC1c1ccccc1 (stereo unspecified)	Non-toxic	7.33	3.43	Non-toxic
COC(=O)C(C)N1C(=O)c2ccccc2NC1c1ccc2c(c1)OCO2 (stereo unspecified)	Non-toxic	8.55	4.07	Non-toxic
COC(=O)CNC(=O)c1ccccc1N	Non-toxic	7.28	3.07	Non-toxic
CC(C(=O)NN)N1C(=O)c2ccccc2NC1c1ccco1 (stereo unspecified)	Non-toxic	7.49	3.51	Non-toxic
NNC(=O)C(Cc1ccccc1)N1C(=O)c2ccccc2NC1c1ccc(Cl)cc1 (stereo unspecified)	Non-toxic	7.74	3.92	Non-toxic
COC(=O)C(C)N1C(=O)c2ccccc2NC1c1ccco1 (stereo unspecified)	Non-toxic	8.09	4.21	Non-toxic
NNC(=O)CCN1C(=O)c2ccccc2NC1c1ccc(Cl)cc1 (stereo unspecified)	Non-toxic	7.29	3.38	Non-toxic
